Measurements published in US20040063764A1, “Halogen compounds having thrombopoietin receptor agonism” (priority 2001, published 2004).

Molecular target: T1, human TPO receptor (Homo sapiens, UniProt P40238)
T1 construct: expressed in transfected cells; host or cells: BaF-B03 (murine IL-3 dependent pro-B cell line); the resulting line is BaF/hTPOR
T1 sequence (P40238 26-635): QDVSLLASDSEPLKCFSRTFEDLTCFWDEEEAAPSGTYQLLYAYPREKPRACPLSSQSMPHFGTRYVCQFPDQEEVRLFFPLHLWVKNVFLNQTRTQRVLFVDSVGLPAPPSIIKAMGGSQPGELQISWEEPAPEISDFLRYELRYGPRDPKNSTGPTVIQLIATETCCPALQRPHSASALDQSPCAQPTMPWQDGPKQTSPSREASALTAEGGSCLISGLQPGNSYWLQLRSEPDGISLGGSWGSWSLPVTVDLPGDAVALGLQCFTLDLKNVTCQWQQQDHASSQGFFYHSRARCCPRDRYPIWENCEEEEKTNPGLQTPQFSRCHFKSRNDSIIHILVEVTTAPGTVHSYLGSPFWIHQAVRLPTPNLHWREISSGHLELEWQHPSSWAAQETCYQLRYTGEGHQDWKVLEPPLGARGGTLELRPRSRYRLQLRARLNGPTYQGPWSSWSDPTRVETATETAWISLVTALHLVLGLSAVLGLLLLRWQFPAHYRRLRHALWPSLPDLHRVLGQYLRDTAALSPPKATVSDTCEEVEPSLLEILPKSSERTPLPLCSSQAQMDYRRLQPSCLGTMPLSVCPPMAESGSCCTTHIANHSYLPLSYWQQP
Test: Thrombopoietic activity: proliferation of TPO dependent BaF/hTPOR cell line (WST-1)
Format: cell-based
Details: BaF/hTPOR cells, 20 hours incubation then WST-1 for 4 hours, absorbance at 450 nm, ED50 = half concentration of the concentration showing the maximum thrombopoietic activity
Excerpt: The TPO dependent BaF/hTPOR cell line which was established by introducing human TPO receptor into BaF-B03 cells according to Collins et al (J. Cell. Physiol., 137:293-298 (1988)) was used to test the thrombopoietic activity of the present compound. The DNA sequences and encoded peptide sequences for human TPO receptor have been described by Vigon et al (Proc. Natl. Acad. Sci. USA, 89:5640-5644 (1992)). TPO dose not have any ability to support proliferation of interlukin-3 dependent parental cell line BaF-B03. BAF/hTPOR cells were maintained in RPMI medium and 10% WEHI-3 conditioned medium. These cells were washed once with PBS and resuspended in RPMI medium without WHEHI-3 conditioned medium and seeded into each well of 96-well microtiter plates at a density of 5×10^4 cells per well in the presence of the present compound or TPO. After incubation at 37° C. for 20 hours in the 5% CO2 incubator, WST-1 reagent (Takara Biomedicals, Japan) was added to each wells and the cells were further incubated for 4 hours. The absorbance at 450 nm was measured. Table 7 exemplifies the ED50 for tested compounds of the present invention, wherein the ED50 is the half concentration of the concentration showing the maximum thrombopoietic activity.

| EC50 [nM] | EC50 (Table 7) [nM] | Structure (SMILES) |
| --- | --- | --- |
| 28 | – | O=C1NC(=O)/C(=C/c2ccc(C(=O)Nc3nc(-c4cccc(C5CCCC5)c4F)cs3)cc2)S1 [Compound A-38] |
| – | 69 | O=C1NC(=O)C(=Cc2ccc(C(=O)Nc3nc(-c4ccc(F)c(-c5ccccc5)c4F)cs3)cc2)S1 [Compound A-19] |
| 8 | – | O=C1NC(=S)S/C1=C\c1ccc(C(=O)Nc2nc(-c3cccc(C(F)(F)F)c3F)cs2)cc1 [Compound A-1] |
| 37 | – | COCCc1cccc(-c2csc(NC(=O)c3ccc(/C=C4\SC(=O)NC4=O)cc3)n2)c1F [Compound A-42] |
| 17 | – | O=C1NC(=O)/C(=C/c2ccc(C(=O)Nc3nc(-c4cccc(C5CCCCC5)c4F)cs3)cc2)S1 [Compound A-37] |
| – | 355 | O=C1NC(=O)C(=Cc2ccc(C(=O)Nc3nc(-c4ccc(C(F)(F)F)c(Br)c4F)cs3)cc2)S1 [Compound A-21] |
| 70 | – | Cc1ccc(-c2csc(NC(=O)c3ccc(/C=C4\SC(=O)NC4=O)cc3)n2)c(F)c1 [Compound A-7] |
| 28 | – | COC(c1cccc(-c2csc(NC(=O)c3ccc(/C=C4\SC(=O)NC4=O)cc3)n2)c1F)C(C)C (stereo not shown) [Compound A-50] |
| – | 83 | O=C1NC(=O)C(=Cc2ccc(C(=O)Nc3nc(-c4ccc(F)c(Br)c4F)cs3)cc2)S1 [Compound A-18] |
| – | 7 | CC(C)CCCCc1cccc(-c2csc(NC(=O)c3ccc(C=C4SC(=O)NC4=O)cc3)n2)c1F [Compound A-26] |
| 86 | – | O=C1NC(=O)/C(=C/c2ccc(C(=O)Nc3nc(-c4cc(F)ccc4F)cs3)cc2)S1 [Compound A-2] |
| 58 | – | CCOc1cccc(-c2csc(NC(=O)c3ccc(/C=C4\SC(=O)NC4=O)cc3)n2)c1F [Compound A-31] |
| 16 | – | CCCc1c(Br)ccc(-c2csc(NC(=O)c3ccc(/C=C4\SC(=O)NC4=O)cc3)n2)c1F [Compound A-29] |
| 109 | – | O=C1NC(=O)/C(=C/c2ccc(C(=O)Nc3nc(-c4cccc(-c5cccnc5)c4F)cs3)cc2)S1 [Compound A-30] |
| 13 | – | O=C1NC(=O)/C(=C/c2ccc(C(=O)Nc3nc(-c4cccc(OC(F)(F)F)c4F)cs3)cc2)S1 [Compound A-46] |
| 10 | – | CCCCc1cccc(-c2csc(NC(=O)c3ccc(/C=C4\SC(=O)NC4=O)cc3)n2)c1F [Compound A-28] |
| 25 | – | O=C1NC(=O)/C(=C/c2ccc(C(=O)Nc3nc(-c4cccc(-c5ccccc5)c4F)cs3)cc2)S1 [Compound A-13] |
| – | 73 | COc1cccc(-c2csc(NC(=O)c3ccc(C=C4SC(=O)NC4=O)cc3)n2)c1F [Compound A-15] |
| 38 | – | O=C1NC(=O)/C(=C/c2ccc(C(=O)Nc3nc(-c4ccc(Br)cc4F)cs3)cc2)S1 [Compound A-6] |
| – | 18 | CCc1cccc(-c2csc(NC(=O)c3ccc(C=C4SC(=O)NC4=O)cc3)n2)c1F [Compound A-25] |

| EC50 [nM] | EC50 (Table 7) [nM] | Structure (SMILES) |
| --- | --- | --- |
| – | 26 | O=C1NC(=O)C(=Cc2ccc(C(=O)Nc3nc(-c4cccc(Br)c4F)cs3)cc2)S1 [Compound A-14] |
| 9 | – | CC(C)(C)CCc1cccc(-c2csc(NC(=O)c3ccc(/C=C4\SC(=O)NC4=O)cc3)n2)c1F [Compound A-32] |
| 345 | – | O=C1NC(=O)/C(=C/c2ccc(C(=O)Nc3nc(-c4ccc(-c5ccccc5)cc4F)cs3)cc2)S1 [Compound A-8] |
| 26 | – | O=C1NC(=O)/C(=C/c2ccc(C(=O)Nc3nc(-c4ccc(C(F)(F)F)cc4F)cs3)cc2)S1 [Compound A-4] |
| – | 49 | CCCCOc1cccc(-c2csc(NC(=O)c3ccc(C=C4SC(=O)NC4=O)cc3)n2)c1F [Compound A-24] |
| 23 | – | CCOCCc1cccc(-c2csc(NC(=O)c3ccc(/C=C4\SC(=O)NC4=O)cc3)n2)c1F [Compound A-35] |
| 74 | – | CCOC(=O)CCCCCc1cccc(-c2csc(NC(=O)c3ccc(/C=C4\SC(=O)NC4=O)cc3)n2)c1F [Compound A-45] |
| 75 | – | COc1ccc(-c2csc(NC(=O)c3ccc(/C=C4\SC(=O)NC4=O)cc3)n2)c(F)c1 [Compound A-3] |
| – | 28 | O=C1NC(=O)C(=Cc2ccc(C(=O)Nc3nc(-c4cccc(-c5ccc(F)cc5)c4F)cs3)cc2)S1 [Compound A-20] |
| – | 75 | CCCCCc1c(F)ccc(-c2csc(NC(=O)c3ccc(C=C4SC(=O)NC4=O)cc3)n2)c1F [Compound A-23] |
| – | 7 | CCCCCCc1cccc(-c2csc(NC(=O)c3ccc(C=C4SC(=O)NC4=O)cc3)n2)c1F [Compound A-22] |
| 23 | – | O=C1NC(=O)/C(=C/c2ccc(C(=O)Nc3nc(-c4cccc(Cc5ccccc5)c4F)cs3)cc2)S1 [Compound A-34] |
| 12 | – | O=C1NC(=O)/C(=C/c2ccc(C(=O)Nc3nc(-c4cccc(CCc5ccccc5)c4F)cs3)cc2)S1 [Compound A-33] |
| 84 | – | CCOC(=O)CCCCc1cccc(-c2csc(NC(=O)c3ccc(/C=C4\SC(=O)NC4=O)cc3)n2)c1F [Compound A-44] |
| 76 | – | O=C1NC(=O)/C(=C/c2ccc(C(=O)Nc3nc(-c4cc(F)c(F)c(F)c4F)cs3)cc2)S1 [Compound A-10] |
| 25 | – | O=C1NC(=O)/C(=C/c2ccc(C(=O)Nc3nc(-c4cccc(F)c4F)cs3)cc2)S1 [Compound A-5] |
| 13 | – | COC(c1cccc(-c2csc(NC(=O)c3ccc(/C=C4\SC(=O)NC4=O)cc3)n2)c1F)C1CCCCC1 (stereo not shown) [Compound A-51] |
| 69 | – | COCCOCCc1cccc(-c2csc(NC(=O)c3ccc(/C=C4\SC(=O)NC4=O)cc3)n2)c1F [Compound A-43] |
| – | 13 | CCCCCc1cccc(-c2csc(NC(=O)c3ccc(C=C4SC(=O)NC4=O)cc3)n2)c1F [Compound A-17] |
| – | 25 | Cc1cccc(-c2csc(NC(=O)c3ccc(C=C4SC(=O)NC4=O)cc3)n2)c1F [Compound A-16] |
